The source of these data is patent US7951829B2, “Benzimidazole modulators of VR1” (Janssen Pharmaceutica NV, priority 2006, dated 2011).

Structures are written as SMILES. Where only a bound is given, the exact number is not on record here.

This test has as its target T1, hVR1 (Homo sapiens, UniProt Q8NER1).
T1 construct: expressed in transfected cells; host or cells: HEK293
In words: Human VR1 (hVR1) Functional Assay (FLIPR intracellular calcium, capsaicin challenge). It is filed as cell-based. The note with it: capsaicin 0.030 μM, HEK293 cells expressing hVR1; for inhibition at 1 µM: test concentration 1 μM.

T1 sequence (Q8NER1 whole entry): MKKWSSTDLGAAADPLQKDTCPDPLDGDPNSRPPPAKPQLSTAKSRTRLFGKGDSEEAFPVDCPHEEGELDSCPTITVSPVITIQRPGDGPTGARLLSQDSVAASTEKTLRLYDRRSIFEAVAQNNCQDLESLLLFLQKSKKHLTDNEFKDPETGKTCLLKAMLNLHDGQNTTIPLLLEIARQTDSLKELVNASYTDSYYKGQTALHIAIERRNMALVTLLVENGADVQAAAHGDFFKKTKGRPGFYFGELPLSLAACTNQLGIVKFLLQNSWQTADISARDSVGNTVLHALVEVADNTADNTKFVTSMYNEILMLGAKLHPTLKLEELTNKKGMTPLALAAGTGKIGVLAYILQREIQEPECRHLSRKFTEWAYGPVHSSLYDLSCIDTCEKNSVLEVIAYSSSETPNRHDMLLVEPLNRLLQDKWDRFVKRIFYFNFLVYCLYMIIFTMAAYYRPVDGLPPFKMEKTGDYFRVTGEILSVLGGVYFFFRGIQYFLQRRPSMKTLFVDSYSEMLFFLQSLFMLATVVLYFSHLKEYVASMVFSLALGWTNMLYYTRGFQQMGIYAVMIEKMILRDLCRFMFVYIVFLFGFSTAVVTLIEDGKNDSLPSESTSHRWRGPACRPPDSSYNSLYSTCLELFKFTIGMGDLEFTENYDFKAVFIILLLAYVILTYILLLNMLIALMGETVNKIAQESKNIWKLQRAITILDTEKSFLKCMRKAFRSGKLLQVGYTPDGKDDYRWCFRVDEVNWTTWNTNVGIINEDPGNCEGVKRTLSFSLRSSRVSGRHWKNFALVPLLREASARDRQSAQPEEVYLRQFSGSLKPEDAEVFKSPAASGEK

As to `NS(=O)(=O)c1ccccc1-c1ccc2[nH]c(/C=C/c3ccc(F)cc3C(F)(F)F)nc2c1` [Cpd 367, (E)-2-{2-[2-(4-fluoro-2-trifluoromethyl-phenyl)-vinyl]-1H-benzimidazol-5-yl}-benzenesulfonamide], the IC50 was 0.053 µM and the inhibition at 1 µM came to 98%.

Take `NS(=O)(=O)c1cc(C(F)(F)F)ccc1-c1ccc2[nH]c(CCc3ccc(C(F)(F)F)cc3)nc2c1` [Cpd 447, 5-trifluoromethyl-2-{2-[2-(4-trifluoromethyl-phenyl)-ethyl]-1H-benzimidazol-5-yl}-benzenesulfonamide]: the IC50 was 0.044 µM and the inhibition at 1 µM is 98%.

Turning to `CNS(=O)(=O)c1ccccc1-c1ccc2[nH]c(/C=C/c3cc(C(F)(F)F)ccc3C(F)(F)F)nc2c1` [Cpd 334, (E)-2-{2-[2-(2,5-bis-trifluoromethyl-phenyl)-vinyl]-1H-benzimidazol-5-yl}-N-methyl-benzenesulfonamide], the IC50 is 0.178 µM and the inhibition at 1 µM came to 94%.

In the case of `CNS(=O)(=O)c1ccccc1-c1ccc2[nH]c(/C=C/c3cccc(Cl)c3F)nc2c1` [Cpd 335, (E)-2-{2-[2-(3-chloro-2-fluoro-phenyl)-vinyl]-1H-benzimidazol-5-yl}-N-methyl-benzenesulfonamide], the half-inhibitory concentration (IC50) was 0.047 µM and the inhibition at 1 µM turned out to be 100%.

Take `CC(C)(O)c1ccccc1-c1ccc2[nH]c([C@H]3C[C@@H]3c3ccc(C(F)(F)F)cc3)nc2c1` [Cpd 503, 2-(2-{2-[(1S,2S)-2-(4-trifluoromethyl-phenyl)-cyclopropyl]-1H-benzimidazol-5-yl}-phenyl)-propan-2-ol]: the IC50 worked out at 0.01 µM and the inhibition at 1 µM is 93%.

In the case of `NS(=O)(=O)NCc1ccccc1-c1ccc2[nH]c(/C=C/c3ccc(C(F)(F)F)cc3)nc2c1` [Cpd 491, (E)-5-(2-aminosulfonylamino-methylphenyl)-2-[2-(4-trifluoromethyl-phenyl)-vinyl]-1H-benzimidazole], the IC50 is 0.077 µM.

Turning to `Cc1ccc(/C=C/c2nc3cc(-c4ccccc4S(N)(=O)=O)ccc3[nH]2)cc1` [Cpd 430, (E)-2-[2-(2-p-tolyl-vinyl)-1H-benzimidazol-5-yl]-benzenesulfonamide], the IC50 was found to be 0.009 µM and the inhibition at 1 µM worked out at 100%.

On to `O=Cc1ccccc1-c1ccc2[nH]c(/C=C/c3ccc(C(F)(F)F)cc3)nc2c1` [Cpd 484, (E)-2-{2-[2-(4-trifluoromethyl-phenyl)-vinyl]-1H-benzimidazol-5-yl}-benzaldehyde], for which the IC50 was over 0.5 µM.

Take `NS(=O)(=O)c1ccccc1-c1ccc2[nH]c(/C=C/c3ccccc3Br)nc2c1` [Cpd 366, (E)-2-{2-[2-(2-bromo-phenyl)-vinyl]-1H-benzimidazol-5-yl}-benzenesulfonamide]: the IC50 was determined as 0.035 µM and the inhibition at 1 µM came to 99%.

With `CNS(=O)(=O)c1ccccc1-c1ccc2[nH]c(/C=C/c3ccccc3Br)nc2c1` [Cpd 348, (E)-2-{2-[2-(2-bromo-phenyl)-vinyl]-1H-benzimidazol-5-yl}-N-methyl-benzenesulfonamide], the IC50 worked out at 0.162 µM and the inhibition at 1 µM turned out to be 86%.

For `CC(C)(C)c1ccc(/C=C/c2nc3cc(-c4cccc(O)c4)c(C(F)(F)F)cc3[nH]2)cc1` [Cpd 49, (E)-3-{2-[2-(4-tert-butyl-phenyl)-vinyl]-6-trifluoromethyl-1H-benzimidazol-5-yl}-phenol], the inhibition at 1 µM stood at 16%.

Turning to `CC(C)(O)c1ccccc1-c1ccc2[nH]c(C3CC3c3ccc(Cl)cc3)nc2c1` (stereo not shown) [Cpd 198, 2-(2-{2-[2-(4-chloro-phenyl)-cyclopropyl]-1H-benzimidazol-5-yl}-phenyl)-propan-2-ol], the IC50 is 0.01 µM and the inhibition at 1 µM came to 95%.

Turning to `CNS(=O)(=O)c1ccccc1-c1ccc2[nH]c(/C=C/c3ccc(N(C)C)cc3)nc2c1` [Cpd 318, (E)-2-{2-[2-(4-dimethylamino-phenyl)-vinyl]-1H-benzimidazol-5-yl}-N-methyl-benzenesulfonamide], the concentration for half-maximal inhibition (IC50) stood at 0.05 µM and the inhibition at 1 µM worked out at 100%.

`CCOc1ccc(/C=C/c2nc3cc(-c4ccccc4NS(C)(=O)=O)ccc3[nH]2)cc1` [Cpd 414, (E)-N-(2-{2-[2-(4-ethoxy-phenyl)-vinyl]-1H-benzimidazol-5-yl}-phenyl)-methanesulfonamide]: the IC50 is 0.14 µM and the inhibition at 1 µM worked out at 98%.

With `CC(C)(C)c1ccc(CCCc2nc3cc(-c4ccccc4O)ccc3[nH]2)cc1` [Cpd 29, 2-{2-[3-(4-tert-butyl-phenyl)-propyl]-1H-benzimidazol-5-yl}-phenol], the inhibition at 1 µM amounted to 6%.

For the compound `NS(=O)(=O)c1ccccc1-c1ccc2[nH]c(CCc3ccccc3)nc2c1` [Cpd 397, 2-(2-phenethyl-1H-benzimidazol-5-yl)-benzenesulfonamide], the IC50 stood at 0.023 µM and the inhibition at 1 µM came to 99%.

In the case of `CNS(=O)(=O)c1ccccc1-c1ccc2[nH]c(/C=C/c3cc(C(F)(F)F)cc(C(F)(F)F)c3)nc2c1` [Cpd 333, (E)-2-{2-[2-(3,5-bis-trifluoromethyl-phenyl)-vinyl]-1H-benzimidazol-5-yl}-N-methyl-benzenesulfonamide], the IC50 worked out at 0.027 µM and the inhibition at 1 µM is 98%.

On to `CS(=O)(=O)c1ccc(CCc2nc3cc(-c4ccccc4S(N)(=O)=O)ccc3[nH]2)cc1` [Cpd 145, 2-{2-[2-(4-methanesulfonyl-phenyl)-ethyl]-1H-benzimidazol-5-yl}-benzenesulfonamide], for which the inhibition at 1 µM is 19%.

As to `CC(C)(C)c1ccc(/C=C/c2nc3cc(-c4ccc(C(N)=O)cc4)ccc3[nH]2)cc1` [Cpd 7, (E)-4-{2-[2-(4-tert-butyl-phenyl)-vinyl]-1H-benzimidazol-5-yl}-benzamide], the inhibition at 1 µM was 10%.

On to `NC(=O)c1ccccc1-c1ccc2[nH]c(/C=C/c3ccc(F)c(F)c3)nc2c1` [Cpd 26, (E)-2-{2-[2-(3,4-difluoro-phenyl)-vinyl]-1H-benzimidazol-5-yl}-benzamide], for which the inhibition at 1 µM stood at 6%.

Regarding `CS(=O)(=O)Nc1ccccc1-c1ccc2[nH]c(/C=C/c3ccc(OC(F)F)cc3)nc2c1` [Cpd 410, (E)-N-(2-{2-[2-(4-difluoromethoxy-phenyl)-vinyl]-1H-benzimidazol-5-yl}-phenyl)-methanesulfonamide], the IC50 turned out to be 0.156 µM and the inhibition at 1 µM stood at 91%.

On to `NS(=O)(=O)c1ccccc1-c1ccc2[nH]c(/C=C/c3cccc(OC(F)(F)F)c3)nc2c1` [Cpd 362, (E)-2-{2-[2-(3-trifluoromethoxy-phenyl)-vinyl]-1H-benzimidazol-5-yl}-benzenesulfonamide], for which the IC50 was 0.008 µM and the inhibition at 1 µM stood at 99%.

Consider `CNS(=O)(=O)c1ccccc1-c1ccc2[nH]c(/C=C/c3ccc(F)c(Cl)c3)nc2c1` [Cpd 321, (E)-2-{2-[2-(3-chloro-4-fluoro-phenyl)-vinyl]-1H-benzimidazol-5-yl}-N-methyl-benzenesulfonamide], for which the IC50 turned out to be 0.018 µM and the inhibition at 1 µM is 100%.

Take `NS(=O)(=O)c1ccccc1-c1ccc2[nH]c(CCc3cccc(C(F)(F)F)c3F)nc2c1` [Cpd 405, 2-{2-[2-(2-fluoro-3-trifluoromethyl-phenyl)-ethyl]-1H-benzimidazol-5-yl}-benzenesulfonamide]: the IC50 came out at 0.02 µM and the inhibition at 1 µM stood at 95%.

On to `CNS(=O)(=O)c1ccccc1-c1ccc2[nH]c(/C=C/c3cc(F)cc(C(F)(F)F)c3)nc2c1` [Cpd 322, (E)-2-{2-[2-(3-fluoro-5-trifluoromethyl-phenyl)-vinyl]-1H-benzimidazol-5-yl}-N-methyl-benzenesulfonamide], for which the IC50 was 0.014 µM and the inhibition at 1 µM was 101%.

On to `CCOc1cccc(/C=C/c2nc3cc(-c4ccccc4S(N)(=O)=O)ccc3[nH]2)c1` [Cpd 425, (E)-2-{2-[2-(3-ethoxy-phenyl)-vinyl]-1H-benzimidazol-5-yl}-benzenesulfonamide], for which the inhibition at 1 µM worked out at 2%.

Take `CC(C)(O)c1ccccc1-c1ccc2[nH]c(/C=C/c3ccc4ncccc4c3)nc2c1` [Cpd 449, (E)-2-{2-[2-(2-quinolin-6-yl-vinyl)-1H-benzimidazol-5-yl]-phenyl}-propan-2-ol]: the IC50 came to 0.009 µM and the inhibition at 1 µM stood at 100%.

For the compound `CS(=O)(=O)Nc1ccccc1-c1ccc2[nH]c(/C=C/c3ccc(Cl)c(Cl)c3)nc2c1` [Cpd 416, (E)-N-(2-{2-[2-(3,4-dichloro-phenyl)-vinyl]-1H-benzimidazol-5-yl}-phenyl)-methanesulfonamide], the IC50 came to 0.12 µM and the inhibition at 1 µM was determined as 96%.

With `CNS(=O)(=O)c1ccccc1-c1ccc2[nH]c(/C=C/c3cccc(Br)c3)nc2c1` [Cpd 338, (E)-2-{2-[2-(3-bromo-phenyl)-vinyl]-1H-benzimidazol-5-yl}-N-methyl-benzenesulfonamide], the IC50 came out at 0.104 µM and the inhibition at 1 µM was found to be 96%.

As to `NS(=O)(=O)c1ccccc1-c1ccc2[nH]c(/C=C/c3ccc(Cl)c(Cl)c3)nc2c1` [Cpd 427, (E)-2-{2-[2-(3,4-dichloro-phenyl)-vinyl]-1H-benzimidazol-5-yl}-benzenesulfonamide], the IC50 turned out to be 0.013 µM and the inhibition at 1 µM was 98%.

As for `NS(=O)(=O)c1ccccc1-c1ccc2[nH]c(/C=C/c3ccc(C(F)(F)F)cc3F)nc2c1` [Cpd 424, (E)-2-{2-[2-(2-fluoro-4-trifluoromethyl-phenyl)-vinyl]-1H-benzimidazol-5-yl}-benzenesulfonamide], the IC50 worked out at 0.011 µM and the inhibition at 1 µM stood at 99%.

In the case of `NC(=O)c1ccccc1-c1ccc2[nH]c(/C=C/c3ccc(C(F)(F)F)cc3)nc2c1` [Cpd 13, (E)-2-{2-[2-(4-trifluoromethyl-phenyl)-vinyl]-1H-benzimidazol-5-yl}-benzamide], the IC50 turned out to be 0.31 µM and the inhibition at 1 µM was 82%.

With `Oc1ccccc1-c1cc2nc(/C=C/c3ccc(C(F)(F)F)cc3)[nH]c2cc1F` [Cpd 59, (E)-2-{6-fluoro-2-[2-(4-trifluoromethyl-phenyl)-vinyl]-1H-benzimidazol-5-yl}-phenol], the IC50 was 0.44 µM and the inhibition at 1 µM was determined as 80%.
